According to patent publication EP4755888A1 (ILAb Co., Ltd., priority 2023, dated 2025):
pIC50: −log10 of the molar value.

Experiments:
[1] = biological target: T1, PD-L1 expressed on the cell surface (MC38 hPD-L1) (Homo sapiens, UniProt Q9NZQ7); assay: Internalization of cell surface PD-L1, flow cytometry with fluorescent staining; type: cell-based; conditions: MC38 hPD-L1 cells, 1 µM, 4 hours; untreated 90% to 99%
T1 construct: expressed in transfected cells; host or cells: MC38 mouse colon cancer cell line expressing human PD-L1
T1 sequence (Q9NZQ7 19-290): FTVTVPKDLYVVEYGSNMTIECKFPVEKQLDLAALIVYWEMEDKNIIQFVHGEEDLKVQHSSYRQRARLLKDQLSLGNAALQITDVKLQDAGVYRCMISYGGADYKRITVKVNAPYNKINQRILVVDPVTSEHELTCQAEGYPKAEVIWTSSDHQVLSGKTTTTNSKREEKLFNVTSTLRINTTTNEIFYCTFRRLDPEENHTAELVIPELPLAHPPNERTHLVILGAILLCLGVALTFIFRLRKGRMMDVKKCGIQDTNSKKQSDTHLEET
Protocol: In order to evaluate the internalization of cell surface PD-L1 induced by the compounds of the present invention synthesized according to the above Preparation Examples, a flow cytometry experiment using fluorescent staining was conducted as described below.
Specifically, a mouse colon cancer cell line expressing human PD-L1 (MC38 hPD-L1) was seeded into a 24-well plate at a density of 5 x 10^5 cells per well, followed by treatment with Compounds 206 to 227 at a concentration of 1 µM and incubation for 4 hours. After 4 hours, the compound-treated MC38 hPD-L1 cells were collected and stained with PE anti-hPD-L1 fluorecence at room temperature for 30 minutes. The rate of PD-L1 expression on the cell surface was then quantified using flow cytometry.

PD-1/PD-L1 = PD-1/PD-L1 (Homo sapiens, UniProt Q9NZQ7); assay: TR-FRET PD-1/PD-L1 binding inhibition at the molecular level (free proteins); conditions: Tag1-PD-L1 and Tag2-PD-1 proteins, twelve concentrations from 200 nM, 2 hours at room temperature, read-out: FRET assay (IC50)
Chain of PD-1/PD-L1 (Q9NZQ7 19-238 limits assumed): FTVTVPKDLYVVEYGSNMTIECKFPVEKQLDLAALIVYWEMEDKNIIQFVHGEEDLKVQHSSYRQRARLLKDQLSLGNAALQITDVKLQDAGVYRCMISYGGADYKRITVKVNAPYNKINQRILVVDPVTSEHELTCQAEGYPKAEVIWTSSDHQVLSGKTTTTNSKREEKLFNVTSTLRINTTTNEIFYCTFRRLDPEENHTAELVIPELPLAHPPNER
In short: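 HTRF read-out at 665/620 nm after 2 h at room temperature. Detection used anti-Tag1 Eu cryptate plus anti-Tag2 XL665 antibodies. Tagged PD-L1 and PD-1 proteins were pre-mixed with compound across twelve […] 1:2 dilutions starting at 200 nM.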

Row | Cell surface PD-L1 expression level (%) [1] [%] | pIC50 (PD-1/PD-L1) | SMILES
1 | 75.3 | > 8.00 | Cc1c(NC(=O)c2cc3n(n2)CCC[C@H]3N2CC[C@@H](C(=O)O)C2)cccc1-c1cccc(Nc2nc(C(F)F)nc3cc(CN4CC[C@@H](O)C4)cnc23)c1C [Compound 211, (R)-1-((R)-2-((3'-((2-(difluoromethyl)-7-(((R)-3-hydroxypyrrolidin-1-yl)methyl)pyrido[3,2-d]pyrimidin-4-yl)amino)-2,2'-dimethyl-[1,1'-biphenyl]-3-yl)carbamoyl)-4,5,6,7-tetrahydropyrazolo[1,5-a]pyridin-4-yl)pyrrolidine-3-carboxylic acid]
2 | 66.4 | 7.00 to 8.00 | O=C(O)CN[C@@H]1CCCn2nc(C(=O)Nc3cccc(-c4cccc(NC(=O)c5ccc(CN6CC[C@@H](O)C6)cn5)c4Cl)c3Cl)cc21 [Compound 223, 2-(((R)-2-((2,2'-dichloro-3'-(5-(((R)-3-hydroxypyrrolidin-1-yl)methyl)picolinamido)-[1,1'-biphenyl]-3-yl)carbamoyl)-4,5,6,7-tetrahydropyrazolo[1,5-a]pyridin-4-yl)amino)acetic acid]
3 | 80.8 | 7.00 to 8.00 | O=C(Nc1cccc(-c2cccc(Nc3nccc4cc(CN5CC[C@H](O)C5)cnc34)c2Cl)c1Cl)c1cc2n(n1)CCC[C@@H]2N1CCC(C(=O)O)CC1 [Compound 226, 1-((S)-2-((2,2'-dichloro-3'-((3-(((S)-3-hydroxypyrrolidin-1-yl)methyl)-1,7-naphthyridin-8-yl)amino)-[1,1'-biphenyl]-3-yl)carbamoyl)-4,5,6,7-tetrahydropyrazolo[1,5-a]pyridin-4-yl)piperidine-4-carboxylic acid]
4 | 73.9 | > 8.00 | Cc1c(NC(=O)c2cc3n(n2)CCC[C@H]3NCC(=O)O)cccc1-c1cccc(Nc2nc(C(F)F)nc3cc(CN4CC[C@@H](O)C4)cnc23)c1C [Compound 213, 2-(((R)-2-((3'-((2-(difluoromethyl)-7-(((R)-3-hydroxypyrrolidin-1-yl)methyl)pyrido[3,2-d]pyrimidin-4-yl)amino)-2,2'-dimethyl-[1,1'-biphenyl]-3-yl)carbamoyl)-4,5,6,7-tetrahydropyrazolo[1,5-a]pyridin-4-yl)amino)acetic acid]

Further lines, the molecule ahead of its results:

Row | SMILES | Cell surface PD-L1 expression level (%) [1] [%] | pIC50 (PD-1/PD-L1)
5 | O=C(Nc1cccc(-c2cccc(NC(=O)c3cc4n(n3)CCC[C@H]4N3CC[C@@H](C(=O)O)C3)c2Cl)c1Cl)c1ccc(CNCCO)cn1 [Compound 209, (R)-1-((R)-2-((2,2'-dichloro-3'-(5-(((2-hydroxyethyl)amino)methyl)picolinamido)-[1,1'-biphenyl]-3-yl)carbamoyl)-4,5,6,7-tetrahydropyrazolo[1,5-a]pyridin-4-yl)pyrrolidine-3-carboxylic acid] | 71.0 | > 8.00
6 | O=C1CC[C@@H](CN[C@@H]2CCCn3nc(C(=O)Nc4cccc(-c5cccc(NC(=O)c6ccc(CNCCO)cn6)c5Cl)c4Cl)cc32)N1 [Compound 225, (R)-N-(2,2'-dichloro-3'-(5-(((2-hydroxyethyl)amino)methyl)picolinamido)-[1,1'-biphenyl]-3-yl)-4-((((S)-5-oxopyrrolidin-2-yl)methyl)amino)-4,5,6,7-tetrahydropyrazolo[1,5-a]pyridine-2-carboxamide] | 1.6 | 7.00 to 8.00
7 | Cc1c(NC(=O)c2ccc(CN3CC[C@@H](O)C3)cn2)cccc1-c1cccc(NC(=O)c2cc3n(n2)CCC[C@H]3NCCO)c1C [Compound 215, (R)-4-((2-hydroxyethyl)amino)-N-(3'-(5-(((R)-3-hydroxypyrrolidin-1-yl)methyl)picolinamido)-2,2'-dimethyl-[1,1'-biphenyl]-3-yl)-4,5,6,7-tetrahydropyrazolo[1,5-a]pyridine-2-carboxamide] | 88.7 | > 8.00
